In ChEMBL document CHEMBL5223157, “Divergent reactivity of usnic acid and evaluation of its derivatives for antiproliferative activity against cancer cells” (Bioorg Med Chem, 2023):
Converted amounts (≈) assume the structure as drawn. The source made the active and inactive calls. The calls are words filed in the database; no cut-off is given here.

Tests used:
HeLa [1] = assay: Antiproliferative activity against human HeLa cells assessed as reduction in cell viability measured at 24 hrs by MTT assay; format: functional, cell-based
HeLa [2] = assay: Antiproliferative activity against human HeLa cells assessed as reduction in cell viability measured at 48 hrs by MTT assay; format: functional, cell-based
[3] = Half life in human liver microsomes; format: ADME, Microsome
[4] = Plasma protein binding in human relative to control; format: ADME, cell-free; settings: read-out: PPB (converted)
[5] = Drug recovery in human plasma relative to control; format: ADME, cell-free
HDFa = assay: Antiproliferative activity against human HDFa cells assessed as reduction in cell viability measured at 48 hrs by MTT assay; format: functional, cell-based
[6] = Toxicity in nude mouse xenografted with human MCF7 cells assessed as side effects at 400 mg/kg, po; format: organism-based; settings: in vivo
[7] = Aqueous solubility of compound in PBS at pH 7.4; format: physicochemical
[8] = Aqueous solubility of the compound in simulated gastric fluid; format: ADME
[9] = Aqueous solubility of the compound in simulated intestinal fluid; format: ADME
[10] = Permeability across apical to basolateral side in human Caco-2 cells; format: ADME, cell-based; settings: read-out: permeability
[11] = Permeability across basolateral to apical side in human Caco-2 cells; format: ADME, cell-based; settings: read-out: permeability
[12] = Lipophilicity, logD of the compound; format: physicochemical; settings: octanol/water
CYP2C8 = target: T1, CYP2C8 (Homo sapiens, UniProt P10632); assay: Inhibition of CYP2C8 in human liver microsomes at 10 uM relative to control; format: ADME, Microsome
T1 sequence (P10632 whole entry): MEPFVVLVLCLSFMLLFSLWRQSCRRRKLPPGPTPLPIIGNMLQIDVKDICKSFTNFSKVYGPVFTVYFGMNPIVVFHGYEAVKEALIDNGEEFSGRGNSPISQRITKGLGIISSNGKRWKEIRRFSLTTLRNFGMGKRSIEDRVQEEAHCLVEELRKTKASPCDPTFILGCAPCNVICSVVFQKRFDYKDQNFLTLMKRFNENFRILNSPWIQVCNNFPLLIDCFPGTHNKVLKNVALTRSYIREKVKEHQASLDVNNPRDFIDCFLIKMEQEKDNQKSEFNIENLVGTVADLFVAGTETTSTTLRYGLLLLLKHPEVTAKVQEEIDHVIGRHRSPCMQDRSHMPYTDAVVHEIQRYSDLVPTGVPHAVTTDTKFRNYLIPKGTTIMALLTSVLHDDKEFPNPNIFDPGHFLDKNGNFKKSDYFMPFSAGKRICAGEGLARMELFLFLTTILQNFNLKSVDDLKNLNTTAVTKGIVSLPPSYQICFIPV

CYP2C19 = CYP2C19 (Homo sapiens, UniProt P33261); assay: Inhibition of CYP2C19 in human liver microsomes at 10 uM relative to control; format: ADME, Microsome
CYP3A = CYP3A (Homo sapiens, UniProt P08684+P20815+P24462+Q9HB55); assay: Inhibition of CYP3A in human liver microsomes at 10 uM relative to control; format: ADME, Microsome
CYP2C9 = CYP2C9 (Homo sapiens, UniProt P11712); assay: Inhibition of CYP2C9 in human liver microsomes at 10 uM relative to control; format: ADME, Microsome
Cytochrome P450 2C19 = Cytochrome P450 2C19 (Homo sapiens, UniProt P33261); assay: Inhibition of CYP2C19 in human liver microsomes; format: ADME, Microsome
Cytochrome P450 2C9 = Cytochrome P450 2C9 (Homo sapiens, UniProt P11712); assay: Inhibition of CYP2C9 in human liver microsomes; format: ADME, Microsome
Cytochrome P450 2C8 = target: T2, Cytochrome P450 2C8 (Homo sapiens, UniProt P10632); assay: Inhibition of CYP2C8 in human liver microsomes; format: ADME, Microsome
T2 sequence (P10632 whole entry): T1 sequence (P10632 whole entry)

Sequence of CYP2C19 (P33261 whole entry): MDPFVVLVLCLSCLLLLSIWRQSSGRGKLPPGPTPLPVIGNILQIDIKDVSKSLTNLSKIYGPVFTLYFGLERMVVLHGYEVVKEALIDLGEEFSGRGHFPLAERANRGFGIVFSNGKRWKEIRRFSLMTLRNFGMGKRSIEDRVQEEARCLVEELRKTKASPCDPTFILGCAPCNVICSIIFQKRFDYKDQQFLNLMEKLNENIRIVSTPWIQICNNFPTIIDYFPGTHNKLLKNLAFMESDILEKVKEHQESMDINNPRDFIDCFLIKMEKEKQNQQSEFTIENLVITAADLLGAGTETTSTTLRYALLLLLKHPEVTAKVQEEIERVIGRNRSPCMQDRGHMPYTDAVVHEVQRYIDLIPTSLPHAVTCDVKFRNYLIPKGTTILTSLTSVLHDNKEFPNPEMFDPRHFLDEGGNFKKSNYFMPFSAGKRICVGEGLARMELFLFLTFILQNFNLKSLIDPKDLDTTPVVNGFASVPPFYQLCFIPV
Sequence of CYP2C9 (P11712 whole entry): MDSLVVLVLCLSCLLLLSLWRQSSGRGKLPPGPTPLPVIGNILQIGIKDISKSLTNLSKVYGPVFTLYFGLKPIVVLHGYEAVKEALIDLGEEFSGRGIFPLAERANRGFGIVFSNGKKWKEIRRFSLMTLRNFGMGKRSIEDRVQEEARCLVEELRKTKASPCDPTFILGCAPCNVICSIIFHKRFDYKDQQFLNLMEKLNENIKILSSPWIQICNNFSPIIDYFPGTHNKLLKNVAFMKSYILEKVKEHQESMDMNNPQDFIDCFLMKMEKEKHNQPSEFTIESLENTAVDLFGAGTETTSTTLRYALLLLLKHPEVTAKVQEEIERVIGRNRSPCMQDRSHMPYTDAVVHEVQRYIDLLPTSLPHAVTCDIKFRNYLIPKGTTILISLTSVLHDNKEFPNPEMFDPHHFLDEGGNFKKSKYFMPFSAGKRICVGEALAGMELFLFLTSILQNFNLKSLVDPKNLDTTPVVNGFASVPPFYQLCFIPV
Sequence of Cytochrome P450 2C9 (P11712 whole entry): as above
Sequence of Cytochrome P450 2C19 (P33261 whole entry): as the sequence (P33261 whole entry) above

## CC(=O)c1c(O)c(C)c(O)c2c1OC1=CC(O)=C(/C(C)=N/N(C)C)C(=O)[C@@]12C
HeLa [1]
  IC50: > 15 µM
HeLa [2]
  IC50: > 15 µM

## CC(=O)C1=C(O)C=C2Oc3c(C(C)=O)c(O)c(C)c(O)c3[C@@]2(C)C1=O [(+)-USNIC ACID]
[3]
  half-life: 1.32 h
HeLa [1]
  IC50: > 15 µM
HeLa [2]
  IC50: > 15 µM
[4]
  fraction unbound: 0.0024
[5]
  Drug recovery: 95%

## CC(=O)c1c(O)c(C)c(O)c2c1OC1=CC(=O)c3c(nn(C)c3C)[C@@]12C
HeLa [1]
  IC50: 0.928 µM
HeLa [2]
  IC50: 0.116 µM
HDFa
  Activity: inactive

## CC(=O)c1c(O)c(C)c(O)c2c1OC1=Cc3onc(C)c3C(=O)[C@@]12C
[3]
  half-life: 0.383 h
HeLa [1]
  IC50: 7.15 µM
HeLa [2]
  IC50: 2.21 µM
[6]
  Activity: Non-Toxic
[7]
  solubility: 0.2 µM (≈ 0.0683 µg/mL)
[8]
  solubility: 37.6 µM (≈ 12.8 µg/mL)
[9]
  solubility: 1.6 µM (≈ 0.546 µg/mL)
[10]
  Papp A→B: 2.2 ×10⁻⁶ cm/s
[11]
  Papp B→A: 0.2 ×10⁻⁶ cm/s
[12]
  logD: 3.32
[4]
  fraction unbound: 0.06
[5]
  Drug recovery: 19%
CYP2C8
  inhibition at 10 µM: 8.5%
CYP2C19
  inhibition at 10 µM: 15.6%
CYP3A
  inhibition at 10 µM: 14.7%

## CC(=O)c1c(O)c(C)c(O)c2c1O[C@@H]1Cc3n[nH]c(C)c3[C@H](O)[C@]21C
HeLa [1]
  IC50: > 15 µM
HeLa [2]
  IC50: > 15 µM

## CC(=O)c1c(O)c(C)c(O)c2c1O[C@@H]1Cc3n[nH]c(C)c3C(=O)[C@]21C
HeLa [1]
  IC50: > 15 µM
HeLa [2]
  IC50: > 15 µM

## CC(=O)c1c(O)c(C)c(O)c2c1OC1=Cc3c(c(C)nn3-c3ccccn3)C(=O)[C@@]12C
HeLa [1]
  IC50: > 15 µM
HeLa [2]
  IC50: > 15 µM

## CC(=O)c1c(O)c(C)c(O)c2c1OC1=CC(=O)c3c(C)noc3[C@@]12C
HeLa [1]
  IC50: > 15 µM
HeLa [2]
  IC50: > 15 µM

## CCn1nc(C)c2c1C=C1Oc3c(C(C)=O)c(O)c(C)c(O)c3[C@@]1(C)C2=O
HeLa [1]
  IC50: > 15 µM
HeLa [2]
  IC50: 11 µM

## CC(=O)c1c(O)c(C)c(O)c2c1OC1=Cc3c(c(C)nn3C(C)(C)C)C(=O)[C@@]12C
HeLa [1]
  IC50: > 15 µM
HeLa [2]
  IC50: > 15 µM

## CC(C)=N/N=C(\C)c1c(O)c(C)c(O)c2c1OC1=CC(=O)c3c(n[nH]c3C)[C@@]12C
HeLa [1]
  IC50: > 15 µM
HeLa [2]
  IC50: 8.65 µM

## CC(=O)c1c(O)c(C)c(O)c2c1OC1=Cc3c(c(C)nn3CCO)C(=O)[C@@]12C
HeLa [1]
  IC50: > 15 µM
HeLa [2]
  IC50: > 15 µM

## CC(=O)c1c(O)c(C)c(O)c2c1OC1=Cc3c(c(C)nn3C)C(=O)[C@@]12C
HeLa [1]
  IC50: > 15 µM
HeLa [2]
  IC50: 3.91 µM

## CC(=O)c1c(O)c(C)c(O)c2c1OC1=Cc3c(c(C)nn3CCBr)C(=O)[C@@]12C
HeLa [1]
  IC50: > 15 µM
HeLa [2]
  IC50: > 15 µM

## CC(=O)c1c(O)c(C)c(O)c2c1OC1=CC(O)=C(/C(C)=N/N)C(=O)[C@@]12C
HeLa [1]
  IC50: > 15 µM
HeLa [2]
  IC50: > 15 µM

## CC(=O)c1c(O)c(C)c(O)c2c1OC1=CC(=O)c3c(C)nn(C)c3[C@@]12C
HeLa [1]
  IC50: > 15 µM
HeLa [2]
  IC50: > 15 µM

## COc1cccc2c1C(=O)c1c(O)c3c(c(O)c1C2=O)C[C@@](O)(C(=O)CO)C[C@@H]3O[C@H]1C[C@H](N)[C@H](O)[C@H](C)O1 [DOXORUBICIN]
HeLa [1]
  IC50: 3.33 µM
HeLa [2]
  IC50: 0.429 µM

## CC(=O)c1c(O)c(C)c(O)c2c1OC1=CC(=O)c3c(n[nH]c3C)[C@@]12C
[3]
  half-life: > 1 h
HeLa [1]
  IC50: 1.92 µM
HeLa [2]
  IC50: 0.878 µM
HDFa
  Activity: inactive
[7]
  solubility: 4 µM (≈ 1.36 µg/mL)
[8]
  solubility: > 200 µM
[9]
  solubility: 11.5 µM (≈ 3.91 µg/mL)
[10]
  Papp A→B: 11.3 ×10⁻⁶ cm/s
[11]
  Papp B→A: 1.6 ×10⁻⁶ cm/s
[12]
  logD: > 3.68
[4]
  fraction unbound: 0.04
[5]
  Drug recovery: 19%
CYP2C8
  inhibition at 10 µM: 52.6%
CYP2C9
  inhibition at 10 µM: 74.6%
CYP2C19
  inhibition at 10 µM: 65.9%
CYP3A
  inhibition at 10 µM: 51.3%
Cytochrome P450 2C19
  IC50: 0.009 µM
Cytochrome P450 2C9
  IC50: 0.094 µM
Cytochrome P450 2C8
  IC50: 1.9 µM

## CC(=O)c1c(O)c(C)c(O)c2c1OC1=Cc3[nH]nc(C)c3C(=O)[C@@]12C
HeLa [1]
  IC50: 1.36 µM
HeLa [2]
  IC50: 0.311 µM
HDFa
  Activity: inactive
